{"source": "patent US20140178315A1", "about": "“Topical Compositions Comprising Ionic Fluids” (Arch Chemicals, Inc., priority 2012, published 2014)", "details": "3 g salt added to 21 g anhydrous betaine glycolate ionic fluid; heated at 105° C. for 2 hours; remained a viscous fluid after cooling to room temperature"}
{"smiles": "C[N+](C)(C)CC(=O)O.O=c1cc(CO)occ1[O-]", "note": "[betaine kojiate]", "values": [{"measurement": "Solubility of betaine kojiate in betaine glycolate ionic fluid (appearance of the mixture)", "value": "formed a clear fluid"}]}
